Values after ≈ are worked out from the molar mass of the structure shown.
Key:
Staphylococcus aureus = test: microbe, parasite or virus in culture; settings: ATCC 43300, 18 h, ASSAY_TEST Inhibition of Bacterial Growth, detection method Absorption (OD600), MEDIA CAMHB, plate type 384well, NBS, CORNING #3640
Description: Antibacterial activity against Staphylococcus aureus MRSA ATCC 43300 (CO-ADD:GP_020); MIC in CAMBH media, using NBS plates, by OD(600)

Pseudomonas aeruginosa [1] = test: Antibacterial activity against Pseudomonas aeruginosa PAO397 [PAO1 d(mexAB-oprM) d(mexCD-oprJ) d(mexEF-oprN) d(mexJKL) d(mexXY) d(opmH)] (CO-ADD:GN_211); MIC in CAMBH media using NBS plates, by OD(600); format: functional; settings: ASSAY_TEST Inhibition of Bacterial Growth, detection method Absorption (OD600), MEDIA CAMHB, plate type 384well, CORNING #3640, time 18 hr
Pseudomonas aeruginosa [2] = test: microbe, parasite or virus in culture; settings: ATCC 27853, 18 h, ASSAY_TEST Inhibition of Bacterial Growth, detection method Absorption (OD600), MEDIA CAMHB, plate type 384well, NBS, CORNING #3640
Description: Antibacterial activity against Pseudomonas aeruginosa ATCC 27853 (CO-ADD:GN_042); MIC in CAMBH media using NBS plates, by OD(600)

HEK293 = test: cells; format: functional, Homo sapiens, ATCC CRL1573; settings: Homo sapiens, ATCC CRL1573, HEK293; ASSAY_TEST Inhibition of Cell Viability; detection method Resazurin; Fluorescence (ex560/em590); MEDIA DMEM with 10% FBS; plate type 384well; TC; CORNING #3712; time 18 hr; read-out: CC50
Candida albicans = test: microbe, parasite or virus in culture; settings: ATCC 90028, ASSAY_TEST Inhibition of Fungal Growth, detection method Absorption (OD530), plate type 384well, NBS, CORNING #3640
Description: Antifungal activity against Candida albicans ATCC 90028 (CO-ADD:FG_001); MIC in YNB media using NBS plates, by OD630

Klebsiella pneumoniae = test: microbe, parasite or virus in culture; settings: ATCC 700603, 18 h, ASSAY_TEST Inhibition of Bacterial Growth, detection method Absorption (OD600), MEDIA CAMHB, plate type 384well, NBS, CORNING #3640
Description: Antibacterial activity against Klebsiella pneumoniae MDR ATCC 70063 (CO-ADD:GN_003); MIC in CAMBH media using NBS plates, by OD(600)

Acinetobacter baumannii = test: microbe, parasite or virus in culture; settings: ATCC 19606, 18 h, ASSAY_TEST Inhibition of Bacterial Growth, detection method Absorption (OD600), MEDIA CAMHB, plate type 384well, NBS, CORNING #3640
Description: Antibacterial activity against Acinetobacter baumannii ATCC 19606 (CO-ADD:GN_034); MIC in CAMBH media using NBS plates, by OD600

Escherichia coli = test: microbe, parasite or virus in culture; settings: ATCC 25922, 18 h, ASSAY_TEST Inhibition of Bacterial Growth, detection method Absorption (OD600), MEDIA CAMHB, plate type 384well, NBS, CORNING #3640
Description: Antibacterial activity against Escherichia coli ATCC 25922 (CO-ADD:GN_001); MIC in CAMBH media using NBS plates, by OD(600)

Description for Cryptococcus neoformans: Antifungal activity against Cryptococcus neoformans H99 ATCC 208821 (CO-ADD:FG_002); MIC in YNB media using NBS plates, by Resazurin OD(600-570)

Compound	MIC (Staphylococcus aureus)	MIC (Pseudomonas aeruginosa [1])	MIC (Pseudomonas aeruginosa [2])	MIC (Candida albicans)	MIC (Cryptococcus neoformans)	MIC (Klebsiella pneumoniae)	MIC (Acinetobacter baumannii)	MIC (Escherichia coli)	CC50 (HEK293)
CC(C)(C)c1cc(C(=O)/C(C#N)=N/Nc2cccc(Cl)c2)no1	> 20 µM	> 20 µM	> 20 µM	> 20 µM	> 20 µM	> 20 µM	> 20 µM	> 20 µM	> 20 µM
O=C(O)c1ccc(-c2ccc(O[C@H]3O[C@H](CO)[C@@H](O)[C@H](O)[C@@H]3O)cc2)cc1	> 20 µM	> 20 µM	> 20 µM	> 20 µM	> 20 µM	> 20 µM	> 20 µM	> 20 µM	> 20 µM
COc1ccc(CNC(=O)C2CCN([C@H](C)c3cccc4ccccc34)CC2)cc1	> 20 µM	> 20 µM	> 20 µM	> 20 µM	> 20 µM	> 20 µM	> 20 µM	> 20 µM	> 20 µM
Nc1nc2c(ncn2/C=C2/CC2(CO)CO)c(=O)[nH]1 [FILOCICLOVIR]	> 20 µM	> 20 µM	> 20 µM	> 20 µM	> 20 µM	> 20 µM	> 20 µM	> 20 µM	> 20 µM
Cc1ccc(Oc2ccccc2-c2csc(N=C3NCCCN3)n2)c(C)c1 [ABAFUNGIN]	> 20 µM	> 20 µM	> 20 µM	0.312 µM (≈ 0.118 µg/mL)	> 20 µM	> 20 µM	> 20 µM	> 20 µM	> 20 µM
Cc1ccc(C)c(OCCCCCCN2C[C@H](O)[C@@H](O)[C@H](O)[C@H]2CO)c1	> 20 µM	> 20 µM	> 20 µM	> 20 µM	> 20 µM	> 20 µM	> 20 µM	> 20 µM	> 20 µM
CCOCc1nc2c(N)nc3ccccc3c2n1CC(C)(C)O [RESIQUIMOD]	> 20 µM	> 20 µM	> 20 µM	> 20 µM	> 20 µM	> 20 µM	> 20 µM	> 20 µM	> 20 µM
CCCCc1ccc(S(=O)(=O)Nc2cc(C)on2)cc1	> 20 µM	> 20 µM	> 20 µM	> 20 µM	> 20 µM	> 20 µM	> 20 µM	> 20 µM	> 20 µM
Fc1ccc(-n2cc(Cn3c(-c4cccc(F)c4)nc4ccccc43)nn2)cc1	> 20 µM	> 20 µM	> 20 µM	> 20 µM	> 20 µM	> 20 µM	> 20 µM	> 20 µM	> 20 µM
Cc1nc2ccc(Cl)cc2c(-c2ccccc2)c1CC(=O)O	> 20 µM	> 20 µM	> 20 µM	> 20 µM	> 20 µM	> 20 µM	> 20 µM	> 20 µM	> 20 µM

Continued, in another order:

MIC (Staphylococcus aureus)	MIC (Pseudomonas aeruginosa [1])	MIC (Pseudomonas aeruginosa [2])	MIC (Candida albicans)	MIC (Cryptococcus neoformans)	MIC (Klebsiella pneumoniae)	MIC (Acinetobacter baumannii)	MIC (Escherichia coli)	Compound	CC50 (HEK293)
> 20 µM	> 20 µM	> 20 µM	> 20 µM	> 20 µM	> 20 µM	> 20 µM	> 20 µM	CCc1cc(CCCOc2c(C)cc(-c3noc(C(F)(F)F)n3)cc2C)on1	> 20 µM
> 20 µM	> 20 µM	> 20 µM	> 20 µM	> 20 µM	> 20 µM	> 20 µM	> 20 µM	Nc1nnc(-c2ccc(Cl)cc2)s1	> 20 µM
> 20 µM	> 20 µM	> 20 µM	> 20 µM	> 20 µM	> 20 µM	> 20 µM	> 20 µM	CCCCCCCCCN1C[C@@H](O)[C@H](O)[C@@H](O)[C@@H]1CO	> 20 µM
> 20 µM	> 20 µM	> 20 µM	> 20 µM	> 20 µM	> 20 µM	> 20 µM	> 20 µM	CC1CN(c2ncnc3c2c(-c2ccccc2)cn3-c2ccc(F)cc2)CC(C)O1 (stereo unspecified)	> 20 µM
> 20 µM	> 20 µM	> 20 µM	> 20 µM	> 20 µM	> 20 µM	> 20 µM	> 20 µM	O=[N+]([O-])c1ccc2c(CCc3c[nH]c4ccccc34)c[nH]c2c1	> 20 µM
> 20 µM	1.25 µM (≈ 0.584 µg/mL)	20 µM (≈ 9.35 µg/mL)	> 20 µM	> 20 µM	> 20 µM	2.5 µM (≈ 1.17 µg/mL)	2.5 µM (≈ 1.17 µg/mL)	NC[C@H]1O[C@H](O[C@H]2[C@H](O)[C@@H](O[C@H]3O[C@H](CO)[C@@H](O)[C@H](N)[C@H]3O)[C@H](N)C[C@@H]2N)[C@H](N)C[C@@H]1O [TOBRAMYCIN]	> 20 µM
> 20 µM	20 µM (≈ 6.52 µg/mL)	> 20 µM	> 20 µM	> 20 µM	> 20 µM	> 20 µM	> 20 µM	O=C(NC1CCCc2c1[nH]c1ccc(Cl)cc21)c1ccccn1 (stereo unspecified)	> 20 µM
> 20 µM	> 20 µM	> 20 µM	> 20 µM	> 20 µM	> 20 µM	> 20 µM	> 20 µM	O=C(c1nc2c(C(F)(F)F)cc(C3CC3)cn2c1Cl)N1CCN([C@H]2CC[C@H](O)CC2)C(=O)C1	> 20 µM
> 20 µM	> 20 µM	> 20 µM	> 20 µM	> 20 µM	> 20 µM	> 20 µM	> 20 µM	CCCC(=O)OCCc1ccccc1	> 20 µM
> 20 µM	> 20 µM	> 20 µM	> 20 µM	> 20 µM	> 20 µM	> 20 µM	> 20 µM	CN1CCN(Cc2ccc(-c3cnc4[nH]cc(-c5ccc6[nH]ccc6c5)c4c3)cc2)CC1	5.33 µM
> 20 µM	> 20 µM	> 20 µM	> 20 µM	> 20 µM	> 20 µM	> 20 µM	> 20 µM	CCNC(=O)Nc1cc(-c2ccccc2)c(-c2cncc(C(=O)O)c2)cn1	> 20 µM
> 20 µM	> 20 µM	> 20 µM	> 20 µM	> 20 µM	> 20 µM	> 20 µM	> 20 µM	O=C(O)C[C@H]1CC[C@H](c2ccc(-c3ccc(Nc4ccc(C(F)(F)F)nc4)cn3)cc2)CC1	> 20 µM
> 20 µM	> 20 µM	> 20 µM	> 20 µM	> 20 µM	> 20 µM	> 20 µM	> 20 µM	Nc1ccc2oc(=O)ccc2c1I	> 20 µM
≤ 0.156 µM	2.5 µM (≈ 1.29 µg/mL)	> 20 µM	> 20 µM	> 20 µM	> 20 µM	> 20 µM	> 20 µM	C=C[C@]1(C)C[C@@H](OC(=O)CS[C@@H]2C[C@H]3CC[C@@H](C2)N3C)[C@]2(C)[C@H](C)CC[C@]3(CCC(=O)[C@H]32)[C@@H](C)[C@@H]1O [RETAPAMULIN]	> 20 µM

— ChEMBL document CHEMBL4513161, “CO-ADD screening of MMV (CH) - Pandemic Response Box” (2021)
